This is an account of results in patent US20120328569A1, “INHIBITORS OF HEPATITIS C VIRUS NS5B POLYMERASE” (priority 2010, published 2012).

Structures are written as SMILES.

For this assay, the system named is HCV genotype 1b replicon. The assay can be described thus: HCV replicon assay, cell ELISA with antibody to replicon-encoded NS3/4A (genotype 1b replicon). The class given is cell-based, hepatitis C virus. Conditions: Hepatitis C virus, 96 h, read-out: Replicon 1b IC50 (nM), HCV genotype 1b replicon cells, 96 hours incubation, NS3/4A ELISA readout. How it is done: The HCV NS5B inhibitory activity of the present compounds may be tested using assays known in the art. The HCV NS5B polymerase inhibitors described herein have activities in a genotype 1b replicon assay as described in the Examples. The assay is performed by incubating a replicon harboring cell-line in the presence of inhibitor for a set period of time and measuring the effect of the inhibitor on HCV replicon replication either directly by quantifying replicon RNA level, or indirectly by measuring enzymatic activity of a co-encoded reporter enzyme such as luciferase or β-lactamase. By performing a series of such measurements at different inhibitor concentrations, the effective inhibitory concentration of the inhibitor (EC50 or EC90) is determined. See Jan M. Vrolijk et al., A replicons-based bioassay for the measurement of interferons in patients with chronic hepatitis C, 110 J. VIROLOGICAL METHODS 201 (2003). Such assays may also be run in an automated format for high through-put screening. See Paul Zuck et al., A cell-based β-lactamase reporter gene assay for the identification of inhibitors of hepatitis C virus replication, 334 ANALYTICAL BIOCHEMISTRY 344 (2004).
Measurement of inhibition by compounds was performed using the HCV replicon system. Several different replicons encoding different HCV genotypes or mutations were used. In addition, potency measurements were made using different formats of the replicon assay, including different ways of measurements and different plating formats. See Jan M. Vrolijk et al., A replicons-based bioassay for the measurement of interferons in patients with chronic hepatitis C, 110 J. VIROLOGICAL METHODS 201 (2003); Steven S. Carroll et al., Inhibition of Hepatitis C Virus RNA Replication by 2′-Modified Nucleoside Analogs, 278(14) J. BIOLOGICAL CHEMISTRY 11979 (2003). However, the underlying principles are common to all of these determinations, and are outlined below.
Stable neomycin phosphotransferase encoding replicons-harboring cell lines were used, so all cell lines were maintained under G418 selection prior to the assay. Potency was determined using a cell ELISA assay with an antibody to the replicons encoded NS3/4a protease. See Caterina Trozzi et al., In Vitro Selection and Characterization of Hepatitis C Virus Serine Protease Variants Resistant to an Active-Site Peptide Inhibitor, 77(6) J. Virol. 3669 (2003). To initiate an assay, replicon cells were plated in the presence of a dilution series of test compound in the absence of G418. Typically, the assays were performed in a 96-well plate formate for manual operation, or a 384-well plate format for automated assay. Replicon cells and compound were incubated for 96 hours. At the end of the assay, cells were washed free of media and compound, and the cells were then lysed. RNA was quantified indirectly through detection of replicon-encoded NS3/4A protein levels, through an ELISA-based assay with an antibody specific for NS3/4A. IC50 determinations were calculated as a percentage of a DMSO control by fitting the data to a four-parameter fit function and the data obtained is provided in the table below.
Turning to `CNC(=O)c1c(-c2ccc(F)cc2)oc2cc(N(C)S(C)(=O)=O)c(-c3cccc(-c4cc5cc(F)ccc5[nH]4)c3)cc12` [Compound 367], the IC50 came out at 3.9 nM.
As for `CNC(=O)c1c(-c2ccc(F)cc2)oc2cc(N(C)S(C)(=O)=O)c(-c3cccc(-c4cc5ncccc5[nH]4)c3)cc12` [Compound 368], the figure is 1.6 nM; as for `CNC(=O)c1c(-c2ccc(F)cc2)oc2cc(N(C)S(C)(=O)=O)c(-c3cccc(-c4cc5cccnc5[nH]4)c3)cc12` [Compound 369], 2.7 nM; as for `CNC(=O)c1c(-c2ccc(F)cc2)oc2cc(N(C)S(C)(=O)=O)c(-c3cccc(-c4[nH]c5ccccc5c4C)c3)cc12` [Compound 370], 8.8 nM.
As for `CNC(=O)c1c(-c2ccc(F)cc2)oc2cc(N(C)S(C)(=O)=O)c(-c3cccc(-c4cc5cccc(Cl)c5[nH]4)c3)cc12` [Compound 371], the figure is 5.8 nM; as for `CNC(=O)c1c(-c2ccc(F)cc2)oc2cc(N(C)S(C)(=O)=O)c(-c3cc(F)cc(-c4cc5ccccc5[nH]4)c3)cc12` [Compound 372], 13 nM; as for `CNC(=O)c1c(-c2ccc(F)cc2)oc2cc(N(C)S(C)(=O)=O)c(-c3ccc(OC)c(-c4cc5ccccc5[nH]4)c3)cc12` [Compound 373], 3.9 nM.
As for `CNC(=O)c1c(-c2ccc(F)cc2)oc2cc(N(C)S(C)(=O)=O)c(-c3ccc(OC)c(-c4cc5cccc(F)c5[nH]4)c3)cc12` [Compound 374], the figure is 52.4 nM; as for `CNC(=O)c1c(-c2ccc(F)cc2)oc2cc(N(C)S(C)(=O)=O)c(-c3cc(OC)cc(-c4cc5ccccc5[nH]4)c3)cc12` [Compound 375], 2.7 nM; as for `CNC(=O)c1c(-c2cccc(-c3cc4c(C(=O)NC)c(-c5ccc(F)cc5)oc4cc3N(C)S(C)(=O)=O)c2)[nH]c2ccccc12` [Compound 377], 1.2 nM.
With `CNC(=O)c1c(-c2ccc(F)cc2)oc2cc(N(C)S(C)(=O)=O)c(-c3cc(OC)cc(-c4cc5cccnc5[nH]4)c3)cc12` [Compound 378], the IC50 amounted to 1.8 nM.
For `CNC(=O)c1c(-c2ccc(F)cc2)oc2cc(N(C)S(C)(=O)=O)c(-c3ccc(F)c(-c4cc5cccnc5[nH]4)c3)cc12` [Compound 380], the IC50 came out at 1.2 nM.
As for `CNC(=O)c1c(-c2ccc(F)cc2)oc2cc(N(CCO)S(C)(=O)=O)c(-c3cc(F)cc(-c4nc5ncccc5o4)c3)cc12` [Compound 386], the figure is 1.3 nM.
The value for `CNC(=O)c1c(-c2ccc(F)cc2)oc2cc(N(CCO)S(C)(=O)=O)c(-c3ccc(OC)c(-c4nc5ncccc5o4)c3)cc12` [Compound 387] was 2.3 nM.
On to `CNC(=O)c1c(-c2ccc(F)cc2)oc2cc(N(CCCCO)S(C)(=O)=O)c(-c3cccc(-c4nc5ncccc5o4)c3)cc12` [Compound 391], for which the IC50 was found to be 2.4 nM.
As for `CNC(=O)c1c(-c2ccc(F)cc2)oc2cc(N(CCCC#N)S(C)(=O)=O)c(-c3cccc(-c4nc5ncccc5o4)c3)cc12` [Compound 393], the figure is 1.2 nM.
`CNC(=O)c1c(-c2ccc(F)cc2)oc2cc(N(CCCCC#N)S(C)(=O)=O)c(-c3cccc(-c4nc5ncccc5o4)c3)cc12` [Compound 394]: the IC50 is 1.4 nM.
The value for `CNC(=O)c1c(-c2ccc(F)cc2)oc2cc(N(CCCNC(=O)OC(C)(C)C)S(C)(=O)=O)c(-c3cccc(-c4nc5ncccc5o4)c3)cc12` [Compound 395] was 8.2 nM.
As for `CNC(=O)c1c(-c2ccc(F)cc2)oc2cc(N(CCCN)S(C)(=O)=O)c(-c3cccc(-c4nc5ncccc5o4)c3)cc12` [Compound 396], the figure is 18.2 nM; as for `CNC(=O)c1c(-c2ccc(F)cc2)oc2cc(N(CCN(C)C)S(C)(=O)=O)c(-c3cccc(-c4nc5ncccc5o4)c3)cc12` [Compound 398], 2.4 nM.
As for `CNC(=O)c1c(-c2ccc(F)cc2)oc2cc(N(CCCN(C)C)S(C)(=O)=O)c(-c3cccc(-c4nc5ncccc5o4)c3)cc12` [Compound 399], the IC50 came out at 2.8 nM.
The value for `CCS(=O)(=O)N(C)c1cc2oc(-c3ccc(F)cc3)c(C(=O)NC)c2cc1-c1cccc(-c2nc3ncccc3o2)c1` [Compound 401] was 1.8 nM.
